Measured values taken from the supplement of paper PMC10307832.

Assays:
Experiment in all cases: relative viability (nuclei count vs DMSO), 5 days (fraction); higher = more cells survive
[1] = compound: CN(C)C[C@@H]1CCn2cc(c3ccccc32)C2=C(C(=O)NC2=O)c2cn(c3ccccc23)CCO1 [Ruboxistaurin] + CS(=O)(=O)N1CCN(Cc2cc3nc(-c4cccc5[nH]ncc45)nc(N4CCOCC4)c3s2)CC1 [Pictilisib] (partner 1 µM)
Outline: (§1)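 Five library-drug doses in √10 steps were combined with a fixed anchor-drug dose, or a single drug was given alone, by pin tool to lung cancer cell lines in 1536-well plates the day after seeding. Nuclei were stained and counted after 5 days. Relative viability is the nuclei count in treated wells over that in vehicle wells, taken as the median of duplicate plates.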

[2] = compound: CN(C)C[C@@H]1CCn2cc(c3ccccc32)C2=C(C(=O)NC2=O)c2cn(c3ccccc23)CCO1 [Ruboxistaurin] + O=C(CCCCCCC(=O)Nc1ccccc1)NO [Vorinostat] (partner 1 µM)
Outline: as §1

[3] = compound: CN(C)C[C@@H]1CCn2cc(c3ccccc32)C2=C(C(=O)NC2=O)c2cn(c3ccccc23)CCO1 [Ruboxistaurin] + Cc1cc(Nc2cc(N3CCN(C)CC3)nc(Sc3ccc(NC(=O)C4CC4)cc3)n2)n[nH]1 [Tozasertib] (partner 0.1 µM)
Outline: as §1

[4] = compound: CN(C)C[C@@H]1CCn2cc(c3ccccc32)C2=C(C(=O)NC2=O)c2cn(c3ccccc23)CCO1 [Ruboxistaurin] + N=C(N)NC(=N)NCCc1ccccc1 [Phenformin] (partner 250 µM)
Outline: as §1

[5] = compound: CN(C)C[C@@H]1CCn2cc(c3ccccc32)C2=C(C(=O)NC2=O)c2cn(c3ccccc23)CCO1 [Ruboxistaurin] + Cc1nc(NC(=O)N2CCC[C@H]2C(N)=O)sc1-c1ccnc(C(C)(C)C(F)(F)F)c1 [Alpelisib] (partner 2 µM)
Outline: as §1

Cell Line	relative viability ([1]; first compound 0.08 µM)	relative viability ([1]; first compound 0.8 µM)	relative viability ([1]; first compound 2.53 µM)	relative viability ([1]; first compound 8 µM)	relative viability ([2]; first compound 0.08 µM)	relative viability ([2]; first compound 0.8 µM)	relative viability ([2]; first compound 2.53 µM)	relative viability ([2]; first compound 8 µM)	relative viability ([3]; first compound 0.08 µM)	relative viability ([3]; first compound 0.8 µM)	relative viability ([3]; first compound 2.53 µM)	relative viability ([3]; first compound 8 µM)	relative viability ([4]; first compound 0.08 µM)	relative viability ([4]; first compound 0.8 µM)	relative viability ([4]; first compound 2.53 µM)	relative viability ([4]; first compound 8 µM)	relative viability ([5]; first compound 0.08 µM)	relative viability ([5]; first compound 0.8 µM)	relative viability ([5]; first compound 2.53 µM)	relative viability ([5]; first compound 8 µM)
NCI-H1666	0.413	0.355	0.474	0.421	0.998	1.1	1.08	1.1	0.653	0.571	0.582	0.503	0.598	0.533	0.583	0.584	1.12	0.809	0.789	0.585
NCI-H1734	0.471	0.398	0.46	0.352	0.861	0.714	0.815	0.624	0.282	0.224	0.249	0.243	0.495	0.342	0.406	0.323	0.768	0.641	0.663	0.57
NCI-H1755	0.422	0.362	0.373	0.264	0.702	0.849	0.856	0.811	0.608	0.55	0.555	0.525	0.678	0.584	0.586	0.635	0.962	0.839	0.897	0.834
NCI-H1793	0.454	0.288	0.478	0.316	0.87		1.08	0.821	0.346	0.242	0.408	0.301	0.412	0.321	0.422	0.408	0.939	0.517	0.615	0.817
NCI-H1915	0.978	0.839	0.924	0.845	0.473	0.526	0.513	0.464	0.456	0.397	0.396	0.375	0.35	0.349	0.363	0.376	1.07	1.02	1.03	1.09
NCI-H1944	0.332	0.279	0.354	0.31	0.552	0.552	0.558	0.427	0.249	0.206	0.239	0.237	0.213	0.183	0.179	0.186	0.866	0.722	0.716	0.738
NCI-H1975	0.302	0.235	0.252	0.211	0.802	0.696	0.698	0.682	0.851	0.54	0.384	0.189	0.431	0.392	0.414	0.418	0.678	0.565	0.561	0.447
NCI-H1993	0.828	0.742	0.763	0.697	0.856	0.711	0.727	0.542	0.574	0.541	0.568	0.538	0.529	0.518	0.525	0.568	0.615	0.664	0.664	0.628
NCI-H2009	0.819	0.796	0.825	0.552	0.794	0.7	0.756	0.821	0.765	0.678	0.768	0.473	0.579	0.442	0.536	0.502	1.21	1.14	1.18	1.14
NCI-H2023	0.243	0.179	0.194	0.156	0.676	0.546	0.667	0.441	0.327	0.256	0.207	0.181	0.448	0.388	0.445	0.383	0.633	0.565	0.605	0.415
NCI-H2085	0.447	0.419	0.409	0.324	0.914	0.82	0.842	0.815	0.846	0.74	0.773	0.797	0.789	0.655	0.745	0.674	0.996	0.899	0.977	0.997
NCI-H2087	0.908	0.68	0.837	0.57	0.977	0.672	0.723	0.975	0.234	0.192	0.241	0.159	0.494	0.409	0.481	0.472	1.07	0.971	1.24	0.952
NCI-H2126	0.533	0.447	0.541	0.463	0.844	0.636	0.871	0.621	0.975	0.803	0.923	0.696	0.573	0.52	0.541	0.52	0.729	0.713	0.76	0.697
NCI-H2170	0.301	0.256	0.322	0.253	0.856	0.775	0.854	0.855	0.719	0.737	0.686	0.745	0.443	0.429	0.458	0.474	0.82	0.716	0.823	0.694
NCI-H2228	0.431	0.358	0.345	0.335	0.924	0.424	0.588	0.559	0.317	0.202	0.237	0.187	0.345	0.256	0.419	0.269	0.85	0.675	0.837	0.478
NCI-H2347	0.739	0.772	0.714	0.519	0.621	0.679	0.65	0.561	0.557	0.468	0.614	0.415	0.557	0.382	0.488	0.367	1.09	0.951	0.967	0.863
